The values that follow are results of earlier work, collected in US20080317729A1, “Ammonium Salts and Ammonium Salt/Mineral Salt Clathrate Compounds for Use as Vehicle and Effective Form for Pharmaco-Medical Applications and for Use as Phase Transfer Agents for Chemical Applications” (priority 2004, published 2008).

Take `CCN(CC)CCOC(=O)c1ccc(N)cc1` [diprocainium carbonate]: the solubility result was “moderately dissoluble”.
